≈ marks a conversion by molar mass, not a printed value. Ends that are not written are not given here.
Experiments:
wild type S. aureus = format: cell-based, Staphylococcus aureus
E. coli DC2 = format: cell-based, Escherichia coli; conditions: DC2, 16 h
S. aureus mprF mutant [1] = format: cell-based, Staphylococcus aureus; conditions: for MIC, S. aureus mprF mutant, −C: absence of carbonate; for MIC, S. aureus mprF mutant, +C: physiological concentration of carbonate present
S. aureus mprF mutant [2] = format: cell-based, Staphylococcus aureus; conditions: for MBC, S. aureus mprF mutant, −C: absence of carbonate; for MBC, S. aureus mprF mutant, +C: carbonate present
[3] = tested on: wild type S. aureus Rosenbach strain; format: cell-based, Staphylococcus aureus; conditions: 16 h
[4] = tested on: Staphylococcus aureus UAMS-1; format: cell-based; conditions: clinical isolate
E. coli K12 = format: cell-based, Escherichia coli; conditions: wild type strain; broth microdilution, measured as described (ref 18 protocol)

| Compound | MBC, WT S. aureus, +C (wild type S. aureus) | MBC, WT S. aureus, −C (wild type S. aureus) | MIC, E. coli DC2 (E. coli DC2) | MIC, S. aureus mprF mutant, −C (S. aureus mprF mutant [1]) | MIC, S. aureus mprF mutant, +C (S. aureus mprF mutant [1]) | MBC, S. aureus mprF mutant, −C (S. aureus mprF mutant [2]) | MBC, S. aureus mprF mutant, +C (S. aureus mprF mutant [2]) | MIC, WT S. aureus, +C [3] | MIC, WT S. aureus, −C [3] | MIC, Staphylococcus aureus UAMS-1 [4] | MIC, E. coli K12 (E. coli K12) |
| --- | --- | --- | --- | --- | --- | --- | --- | --- | --- | --- | --- |
| LLGDFFRKVKEKIGKEFKRIVQR [LL-23V9] | >24 µM | >24 µM | 2 µM | 6 µM | 0.35 to 0.7 µM | 3 to 6 µM | 6 to 12 µM | 12 µM | >24 µM |  |  |
| LLGDFFRKSKEKIGKEFKRIVQR [LL-23] | >24 µM | >24 µM | 9 µM | 24 µM | 3 µM | >24 µM | 12 µM | >24 µM | >24 µM | > 160 µM |  |
| LLGDFFRKAKEKIGKEFKRIVQR [LL-23A9] | >24 µM | >24 µM | 9 µM | 6 µM | 0.35 to 0.7 µM | 6 to 12 µM | 6 µM | >24 µM | >24 µM |  |  |
| CC[C@H](C)[C@H](NC(=O)[C@H](CCCCN)NC(=O)[C@H](CCC(=O)O)NC(=O)[C@H](CCCCN)NC(=O)[C@@H](NC(=O)[C@H](CCCCN)NC(=O)[C@H](CCCNC(=N)N)NC(=O)[C@H](Cc1ccccc1)NC(=O)[C@H](Cc1ccccc1)NC(=O)[C@H](CC(=O)O)NC(=O)CNC(=O)[C@H](CC(C)C)NC(=O)[C@@H](N)CC(C)C)C(C)C)C(=O)NCC(=O)N[C@@H](CCCCN)C(=O)N[C@@H](CCC(=O)O)C(=O)N[C@@H](Cc1ccccc1)C(=O)N[C@@H](CCCCN)C(=O)N[C@@H](CCCNC(=N)N)C(=O)N[C@H](C(=O)N[C@H](C(=O)N[C@@H](CCC(N)=O)C(=O)N[C@@H](CCCNC(=N)N)C(=O)N[C@H](C(=O)N[C@@H](CCCCN)C(=O)N[C@@H](CC(=O)O)C(=O)N[C@@H](Cc1ccccc1)C(=O)N[C@@H](CC(C)C)C(=O)N[C@@H](CCCNC(=N)N)C(=O)N[C@@H](CC(N)=O)C(=O)N[C@@H](CC(C)C)C(=O)N[C@H](C(=O)N1CCC[C@H]1C(=O)N[C@@H](CCCNC(=N)N)C(=O)N[C@H](C(=O)N[C@@H](CCC(=O)O)C(=O)N[C@@H](CO)C(=O)O)[C@@H](C)O)C(C)C)[C@@H](C)CC)C(C)C)[C@@H](C)CC [LL-37V9] |  |  | 12 µM (≈ 54.1 µg/mL) |  |  |  |  |  |  |  |  |
| CC[C@H](C)[C@H](NC(=O)[C@H](CCCCN)NC(=O)[C@H](CCC(=O)O)NC(=O)[C@H](CCCCN)NC(=O)[C@H](CO)NC(=O)[C@H](CCCCN)NC(=O)[C@H](CCCNC(=N)N)NC(=O)[C@H](Cc1ccccc1)NC(=O)[C@H](Cc1ccccc1)NC(=O)[C@H](CC(=O)O)NC(=O)CNC(=O)[C@H](CC(C)C)NC(=O)[C@@H](N)CC(C)C)C(=O)NCC(=O)N[C@@H](CCCCN)C(=O)N[C@@H](CCC(=O)O)C(=O)N[C@@H](Cc1ccccc1)C(=O)N[C@@H](CCCCN)C(=O)N[C@@H](CCCNC(=N)N)C(=O)N[C@H](C(=O)N[C@H](C(=O)N[C@@H](CCC(N)=O)C(=O)N[C@@H](CCCNC(=N)N)C(=O)N[C@H](C(=O)N[C@@H](CCCCN)C(=O)N[C@@H](CC(=O)O)C(=O)N[C@@H](Cc1ccccc1)C(=O)N[C@@H](CC(C)C)C(=O)N[C@@H](CCCNC(=N)N)C(=O)N[C@@H](CC(N)=O)C(=O)N[C@@H](CC(C)C)C(=O)N[C@H](C(=O)N1CCC[C@H]1C(=O)N[C@@H](CCCNC(=N)N)C(=O)N[C@H](C(=O)N[C@@H](CCC(=O)O)C(=O)N[C@@H](CO)C(=O)O)[C@@H](C)O)C(C)C)[C@@H](C)CC)C(C)C)[C@@H](C)CC [LL-37] |  |  |  |  |  |  |  |  |  |  | 5 µM (≈ 22.5 µg/mL) |
| CC[C@H](C)[C@H](NC(=O)[C@H](CCCCN)NC(=O)[C@H](CCC(=O)O)NC(=O)[C@H](CCCCN)NC(=O)[C@H](C)NC(=O)[C@H](CCCCN)NC(=O)[C@H](CCCNC(=N)N)NC(=O)[C@H](Cc1ccccc1)NC(=O)[C@H](Cc1ccccc1)NC(=O)[C@H](CC(=O)O)NC(=O)CNC(=O)[C@H](CC(C)C)NC(=O)[C@@H](N)CC(C)C)C(=O)NCC(=O)N[C@@H](CCCCN)C(=O)N[C@@H](CCC(=O)O)C(=O)N[C@@H](Cc1ccccc1)C(=O)N[C@@H](CCCCN)C(=O)N[C@@H](CCCNC(=N)N)C(=O)N[C@H](C(=O)N[C@H](C(=O)N[C@@H](CCC(N)=O)C(=O)N[C@@H](CCCNC(=N)N)C(=O)N[C@H](C(=O)N[C@@H](CCCCN)C(=O)N[C@@H](CC(=O)O)C(=O)N[C@@H](Cc1ccccc1)C(=O)N[C@@H](CC(C)C)C(=O)N[C@@H](CCCNC(=N)N)C(=O)N[C@@H](CC(N)=O)C(=O)N[C@@H](CC(C)C)C(=O)N[C@H](C(=O)N1CCC[C@H]1C(=O)N[C@@H](CCCNC(=N)N)C(=O)N[C@H](C(=O)N[C@@H](CCC(=O)O)C(=O)N[C@@H](CO)C(=O)O)[C@@H](C)O)C(C)C)[C@@H](C)CC)C(C)C)[C@@H](C)CC [LL-37A9] |  |  | 6 µM (≈ 26.9 µg/mL) |  |  |  |  |  |  |  |  |
